Here are results for 5 molecules from US10168342B2, “Lipid probes and uses thereof” (THE SCRIPPS RESEARCH INSTITUTE, priority 2015, dated 2019).

Experiment [1] deals with AEA-DA lipid probe targets in Neuro2a cells (Mus musculus, UniProt P20152).
The target in experiment [2] is T1, AEA-DA lipid probe targets in Neuro2a cells (Mus musculus, UniProt P21995).
T1 sequence (P21995 34-330): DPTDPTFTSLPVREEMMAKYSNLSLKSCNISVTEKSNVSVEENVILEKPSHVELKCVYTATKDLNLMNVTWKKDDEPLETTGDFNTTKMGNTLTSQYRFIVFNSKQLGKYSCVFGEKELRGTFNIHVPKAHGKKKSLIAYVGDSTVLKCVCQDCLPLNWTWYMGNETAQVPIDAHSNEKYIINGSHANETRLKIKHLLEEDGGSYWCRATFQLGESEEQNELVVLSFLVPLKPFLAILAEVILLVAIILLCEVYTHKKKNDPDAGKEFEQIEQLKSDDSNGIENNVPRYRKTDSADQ

Experiment [3] has as its target T2, AEA-DA lipid probe targets in Neuro2a cells (Mus musculus, UniProt P32037).
T2 sequence (P32037 1-493): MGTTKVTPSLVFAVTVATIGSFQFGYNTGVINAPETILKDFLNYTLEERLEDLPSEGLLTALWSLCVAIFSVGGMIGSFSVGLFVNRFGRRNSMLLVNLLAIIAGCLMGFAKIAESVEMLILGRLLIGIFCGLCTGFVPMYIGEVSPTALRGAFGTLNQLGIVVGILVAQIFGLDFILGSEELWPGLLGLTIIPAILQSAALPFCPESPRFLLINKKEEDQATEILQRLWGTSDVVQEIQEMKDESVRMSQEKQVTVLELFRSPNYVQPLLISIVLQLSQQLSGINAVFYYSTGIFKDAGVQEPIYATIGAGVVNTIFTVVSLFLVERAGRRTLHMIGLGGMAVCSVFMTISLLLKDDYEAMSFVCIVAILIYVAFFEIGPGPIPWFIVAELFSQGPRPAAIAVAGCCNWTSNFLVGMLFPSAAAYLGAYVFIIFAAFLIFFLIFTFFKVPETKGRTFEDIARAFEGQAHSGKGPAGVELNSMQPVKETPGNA

Experiment [4] deals with AEA-DA lipid probe targets in Neuro2a cells (Mus musculus, UniProt P53994).
Experiment [5] has as its target T3, AEA-DA lipid probe targets in Neuro2a cells (Mus musculus, UniProt P57776).
T3 sequence (P57776 1-281): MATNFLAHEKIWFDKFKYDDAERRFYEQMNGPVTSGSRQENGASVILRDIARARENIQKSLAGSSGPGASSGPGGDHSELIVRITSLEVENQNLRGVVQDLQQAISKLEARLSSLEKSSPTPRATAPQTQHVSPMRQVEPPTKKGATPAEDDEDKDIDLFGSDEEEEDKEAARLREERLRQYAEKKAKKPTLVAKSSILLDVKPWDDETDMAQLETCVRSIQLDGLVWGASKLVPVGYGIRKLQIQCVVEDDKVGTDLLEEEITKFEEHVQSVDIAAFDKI

The target in experiment [6] is T4, AEA-DA lipid probe targets in Neuro2a cells (Mus musculus, UniProt Q03517).
T4 sequence (Q03517 31-617): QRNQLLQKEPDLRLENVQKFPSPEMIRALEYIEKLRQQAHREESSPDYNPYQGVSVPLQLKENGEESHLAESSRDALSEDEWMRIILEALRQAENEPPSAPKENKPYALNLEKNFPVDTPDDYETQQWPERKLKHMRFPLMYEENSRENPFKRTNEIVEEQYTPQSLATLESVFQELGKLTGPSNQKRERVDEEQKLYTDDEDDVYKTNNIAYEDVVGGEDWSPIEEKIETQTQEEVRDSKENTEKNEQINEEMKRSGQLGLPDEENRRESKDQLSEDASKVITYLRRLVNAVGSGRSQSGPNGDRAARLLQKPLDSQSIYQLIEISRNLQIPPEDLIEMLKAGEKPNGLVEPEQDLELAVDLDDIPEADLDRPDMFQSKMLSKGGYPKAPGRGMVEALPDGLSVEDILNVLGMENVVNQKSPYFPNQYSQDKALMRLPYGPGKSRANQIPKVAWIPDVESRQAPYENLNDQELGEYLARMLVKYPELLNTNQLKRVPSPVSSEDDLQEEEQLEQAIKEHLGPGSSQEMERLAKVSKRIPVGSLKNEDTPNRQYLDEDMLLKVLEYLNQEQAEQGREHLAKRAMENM

Experiment [7] deals with T5, AEA-DA lipid probe targets in Neuro2a cells (Mus musculus, UniProt Q9R1J0).
T5 sequence (Q9R1J0 1-362): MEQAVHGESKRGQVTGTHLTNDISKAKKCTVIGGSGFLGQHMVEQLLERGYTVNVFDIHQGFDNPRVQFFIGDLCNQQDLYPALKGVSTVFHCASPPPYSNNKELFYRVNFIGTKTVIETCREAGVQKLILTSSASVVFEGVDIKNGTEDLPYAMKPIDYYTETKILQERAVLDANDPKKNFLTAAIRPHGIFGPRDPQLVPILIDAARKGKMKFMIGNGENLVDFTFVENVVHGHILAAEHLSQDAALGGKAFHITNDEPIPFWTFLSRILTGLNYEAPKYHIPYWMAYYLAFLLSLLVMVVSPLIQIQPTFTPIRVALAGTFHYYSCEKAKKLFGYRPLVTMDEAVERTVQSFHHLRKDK
The conditions noted are these: for SILAC ratio, NSDHL (Q15738): Neuro2a cells, AEA-DA probe.

Experiment [8] addresses AEA-DA lipid probe targets in Neuro2a cells (Mus musculus, UniProt G5E895). The conditions noted are these: competitor 25 μM.
Experiment [9] deals with T6, AEA-DA lipid probe targets in Neuro2a cells (Mus musculus, UniProt Q505D7).
T6 sequence (Q505D7 1-179): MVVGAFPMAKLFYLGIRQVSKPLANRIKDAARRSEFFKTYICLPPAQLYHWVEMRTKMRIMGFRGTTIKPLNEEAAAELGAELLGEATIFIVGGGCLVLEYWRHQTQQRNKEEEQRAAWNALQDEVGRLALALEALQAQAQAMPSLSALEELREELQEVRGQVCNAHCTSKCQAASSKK
The conditions noted are these: for SILAC ratio, OPA3 (Q505D7): Neuro2a cells, AEA-DA probe.

SMILES strings stand for the structures. Like-named read-outs stand apart in the source and are kept apart here.

AEA-DA lipid probe targets in Neuro2a cells (Mus musculus, UniProt G5E895), sequence (G5E895 1-316): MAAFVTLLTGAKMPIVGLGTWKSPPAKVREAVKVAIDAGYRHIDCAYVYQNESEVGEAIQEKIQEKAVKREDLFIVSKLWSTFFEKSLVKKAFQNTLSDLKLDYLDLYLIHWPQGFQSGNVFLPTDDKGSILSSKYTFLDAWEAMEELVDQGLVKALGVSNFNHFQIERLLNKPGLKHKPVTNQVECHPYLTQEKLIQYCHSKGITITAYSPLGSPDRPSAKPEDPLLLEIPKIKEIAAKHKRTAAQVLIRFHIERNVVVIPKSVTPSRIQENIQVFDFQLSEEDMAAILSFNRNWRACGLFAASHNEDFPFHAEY
AEA-DA lipid probe targets in Neuro2a cells (Mus musculus, UniProt P20152), sequence (P20152 whole entry): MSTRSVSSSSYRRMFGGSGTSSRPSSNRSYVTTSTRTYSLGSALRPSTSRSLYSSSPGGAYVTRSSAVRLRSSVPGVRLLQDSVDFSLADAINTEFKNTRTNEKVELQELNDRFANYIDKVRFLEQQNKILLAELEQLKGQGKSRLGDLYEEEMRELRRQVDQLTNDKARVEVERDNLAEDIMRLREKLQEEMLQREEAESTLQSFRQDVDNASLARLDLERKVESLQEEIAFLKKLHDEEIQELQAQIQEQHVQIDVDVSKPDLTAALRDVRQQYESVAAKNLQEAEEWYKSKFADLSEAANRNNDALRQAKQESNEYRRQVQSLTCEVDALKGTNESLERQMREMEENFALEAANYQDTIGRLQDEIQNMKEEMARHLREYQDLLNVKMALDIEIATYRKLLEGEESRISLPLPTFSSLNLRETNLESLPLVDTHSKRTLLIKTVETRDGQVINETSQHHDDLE
AEA-DA lipid probe targets in Neuro2a cells (Mus musculus, UniProt P53994), sequence (P53994 whole entry): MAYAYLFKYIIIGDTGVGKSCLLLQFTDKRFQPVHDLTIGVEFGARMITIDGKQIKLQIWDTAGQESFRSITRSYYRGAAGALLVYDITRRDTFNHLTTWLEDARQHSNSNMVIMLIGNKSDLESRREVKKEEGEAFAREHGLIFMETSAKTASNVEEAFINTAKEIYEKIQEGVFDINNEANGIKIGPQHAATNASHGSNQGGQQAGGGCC

In the case of `CCCCC/C=C\C/C=C\C/C=C\C/C=C\CCCC(=O)NCCO` [AEA, anandamide, reference compound], the “SILAC ratio Vim” value in [1] (competitor 200 μM) came out at 0.9. Also, the “SILAC ratio, Emb” value in experiment [2] (competitor 200 μM) is 1.8. For the same molecule, in experiment [3] (competitor 200 μM), the “SILAC ratio, Slc2a3” value was found to be 1.0. In experiment [4] (competitor 200 μM), the “SILAC ratio Rab2a” value amounted to 1.3. Moreover, the “SILAC ratio Eef1d” value in experiment [5] (competitor 200 μM) was 1.1. The “SILAC ratio, Scg2” value in [6] (competitor 200 μM) amounted to 1.2. In addition, in experiment [7] (competitor 200 μM), the “SILAC ratio, NSDHL (Q15738)” value came to 2.0 and the “SILAC ratio, Nsdhl” value was found to be 2.0.
For `C=CCN(C)CCCCCCOc1ccc(C(=O)c2ccc(Br)cc2)c(F)c1` [Ro 48-8071, reference compound], the “SILAC ratio, Akr1b10” value in experiment [8] came to 1.5. In addition, the “SILAC ratio Vim” value in [1] (competitor 25 μM) stood at 0.8. Also, the “SILAC ratio, Emb” value in [2] (competitor 25 μM) is 1.1. Also, the “SILAC ratio, Slc2a3” value in experiment [3] (competitor 25 μM) is 1.0. In addition, in experiment [4] (competitor 25 μM), the “SILAC ratio Rab2a” value is on record as 1.1. Besides, in experiment [5] (competitor 25 μM), the “SILAC ratio Eef1d” value came out at 0.9. Besides, the “SILAC ratio, Scg2” value in [6] (competitor 25 μM) was 1.1. Besides, in [9] (competitor 25 μM), the “SILAC ratio, OPA3 (Q505D7)” value stood at 1.4 and the “SILAC ratio, Opa3” value was 1.4. Also, in experiment [7] (competitor 25 μM), the “SILAC ratio, NSDHL (Q15738)” value worked out at 1.3 and the “SILAC ratio, Nsdhl” value worked out at 1.3.
For `CN1CCN(C(=O)c2c(-c3ccccc3)c3cc([N+](=O)[O-])ccc3n2C)CC1` [KML110, (1-Methyl-5-nitro-3-phenyl-1H-indol-2-yl)(4-methylpiperazin-1-yl)methanone], in [8], the “SILAC ratio, Akr1b10” value was 3.9. Besides, the “SILAC ratio Vim” value in experiment [1] (competitor 25 μM) amounted to 1.2. Besides, the “SILAC ratio, Emb” value in [2] (competitor 25 μM) came to 1.8. The “SILAC ratio, Slc2a3” value in experiment [3] (competitor 25 μM) was found to be 1.2. Besides, in experiment [4] (competitor 25 μM), the “SILAC ratio Rab2a” value is on record as 1.3. The “SILAC ratio Eef1d” value in [5] (competitor 25 μM) came out at 1.4. For the same molecule, the “SILAC ratio, Scg2” value in experiment [6] (competitor 25 μM) is listed as 1.4. In [9] (competitor 25 μM), the “SILAC ratio, Opa3” value stood at 1.6. For the same molecule, the “SILAC ratio, Nsdhl” value in experiment [7] (competitor 25 μM) is recorded as 1.7.
For the molecule `O=C(/C=C/c1cccnc1)NCCCCC1CCN(C(=O)c2ccccc2)CC1` [FK-866, reference compound], in experiment [8], the “SILAC ratio, Akr1b10” value came out at 1.9. The “SILAC ratio Vim” value in [1] (competitor 25 μM) is 1.2. Besides, the “SILAC ratio, Emb” value in experiment [2] (competitor 25 μM) was 1.3. Moreover, the “SILAC ratio, Slc2a3” value in experiment [3] (competitor 25 μM) was 1.1. In addition, in experiment [4] (competitor 25 μM), the “SILAC ratio Rab2a” value is listed as 1.2. For the same molecule, the “SILAC ratio Eef1d” value in experiment [5] (competitor 25 μM) turned out to be 1.2. Besides, the “SILAC ratio, Scg2” value in experiment [6] (competitor 25 μM) was determined as 1.0. Further, in experiment [9] (competitor 25 μM), the “SILAC ratio, OPA3 (Q505D7)” value came out at 1.1 and the “SILAC ratio, Opa3” value was 1.1. In experiment [7] (competitor 25 μM), the “SILAC ratio, NSDHL (Q15738)” value came to 1.3 and the “SILAC ratio, Nsdhl” value is 1.3.
For the molecule `CN1CCN(C(=O)c2[nH]c3ccc([N+](=O)[O-])cc3c2-c2ccccc2)CC1` [MJN228, (4-Methylpiperazin-1-yl)(5-nitro-3-phenyl-1H-indol-2-yl)methanone], the “SILAC ratio, Akr1b10” value in experiment [8] amounted to 2.8. Besides, the “SILAC ratio Vim” value came to 1.2 in experiment [1] (competitor 10 μM), 1.2 in experiment [1] (competitor 25 μM), 0.9 in [1] (competitor 50 μM) and 1.0 in experiment [1] (competitor 100 μM). Moreover, the “SILAC ratio, Emb” value is 1.3 in [2] (competitor 10 μM), 1.7 in experiment [2] (competitor 25 μM), 1.4 in experiment [2] (competitor 50 μM) and 2.2 in experiment [2] (competitor 100 μM). Also, the “SILAC ratio, Slc2a3” value in experiment [3] (competitor 10 μM) came out at 1.2; in experiment [3] (competitor 25 μM) it was 1.4; in experiment [3] (competitor 50 μM) it was 1.2; in experiment [3] (competitor 100 μM), 1.2. The “SILAC ratio Rab2a” value in experiment [4] (competitor 10 μM) is 1.4; in experiment [4] (competitor 25 μM) it was 1.5; in [4] (competitor 50 μM), 1.6; in [4] (competitor 100 μM) it was 1.6. The “SILAC ratio Eef1d” value in experiment [5] (competitor 25 μM) worked out at 1.3; in experiment [5] (competitor 100 μM), 1.4. Besides, the “SILAC ratio, Scg2” value in experiment [6] (competitor 10 μM) stood at 1.3; in [6] (competitor 25 μM) it was 1.5; in experiment [6] (competitor 50 μM), 1.2; in experiment [6] (competitor 100 μM) it was 1.1. Also, the “SILAC ratio, OPA3 (Q505D7)” value in experiment [9] (competitor 25 μM) was found to be 1.4. For the same molecule, the “SILAC ratio, Opa3” value amounted to 1.4 in experiment [9] (competitor 10 μM), 1.4 in [9] (competitor 25 μM), 1.5 in experiment [9] (competitor 50 μM) and 1.9 in experiment [9] (competitor 100 μM). Moreover, the “SILAC ratio, NSDHL (Q15738)” value in experiment [7] (competitor 25 μM) is on record as 2.3. The “SILAC ratio, Nsdhl” value in experiment [7] (competitor 10 μM) is recorded as 1.7; in experiment [7] (competitor 25 μM), 2.3; in experiment [7] (competitor 50 μM), 3.0; in experiment [7] (competitor 100 μM), 4.0.
